# Measurements as given in patent publication US20220304947A1, “COMPOSITIONS AND METHODS FOR INHIBITING PROTEOLYTIC ACTIVATION OF VIRUSES” (priority 2021, published 2022).
# Where two headings read alike, the source gives them in different places. Residues, ends and D or L forms follow the SMILES beside them. *: point of attachment. Decanoyl = CCCCCCCCCC(=O)*; CH2Cl = ClC*
# Assays:
# [1] = target: Recombinant human Furin protein (Homo sapiens, UniProt P09958); experiment: Inhibition of proteolytic enzyme (Furin) activity, fluorogenic substrate pGlu-Arg-Thr-Lys-Arg-AMC; type: biochemical; details: for inhibition at 6.25 µg/mL: at 6.25 μg/ml; for inhibition at 100 µg/mL: at 100 μg/ml
# Sequence of Recombinant human Furin protein (P09958 108-794): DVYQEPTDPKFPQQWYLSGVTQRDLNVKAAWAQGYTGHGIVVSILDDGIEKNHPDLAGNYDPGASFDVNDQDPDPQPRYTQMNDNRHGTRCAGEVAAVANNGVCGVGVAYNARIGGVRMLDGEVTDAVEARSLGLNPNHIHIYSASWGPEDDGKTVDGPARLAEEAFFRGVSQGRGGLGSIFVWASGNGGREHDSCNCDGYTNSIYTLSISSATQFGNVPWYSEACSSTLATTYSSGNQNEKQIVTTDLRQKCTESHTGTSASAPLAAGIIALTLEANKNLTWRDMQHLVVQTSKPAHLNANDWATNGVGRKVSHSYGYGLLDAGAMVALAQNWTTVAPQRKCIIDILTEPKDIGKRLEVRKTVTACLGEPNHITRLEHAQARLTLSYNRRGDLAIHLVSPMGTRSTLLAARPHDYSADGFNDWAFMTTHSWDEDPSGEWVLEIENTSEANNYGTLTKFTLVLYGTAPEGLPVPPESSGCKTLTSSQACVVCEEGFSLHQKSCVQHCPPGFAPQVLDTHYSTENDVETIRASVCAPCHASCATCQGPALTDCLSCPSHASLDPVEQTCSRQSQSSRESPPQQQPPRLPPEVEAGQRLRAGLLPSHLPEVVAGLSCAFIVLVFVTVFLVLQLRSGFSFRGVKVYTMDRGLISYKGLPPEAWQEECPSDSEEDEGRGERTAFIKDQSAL
# SARS-CoV-2 = experiment: Anti-viral assay against SARS-CoV-2 in Vero E6 cells (qRT-PCR viral load); type: cell-based; details: Ribavirin 2 μM, compared to infected cells only
# [2] = read-out: Percentage inhibition of Furin
# [3] = read-out: IC50, inhibition of Furin (converted)
"inhibition at 25 µg/mL ([1]; at 25 μg/ml, read-out: Percentage inhibition of Furin)",SMILES,"inhibition at 6.25 µg/mL [1, 2]","inhibition at 100 µg/mL [1, 2]","IC50 [1, 3]","IC50 ([1]; read-out: IC50, inhibition of Furin (positive control))",reduction of viral load (SARS-CoV-2)
–,"O=C(/C=C/c1ccc(O)cc1)CC(=O)/C=C/c1ccc(O)cc1 [BDMC, Bisdemethoxycurcumin]",34%,78%,48 µM,–,–
64.2%,COc1cc(/C=C/C(=O)CC(=O)/C=C/c2ccc(O)c(OC)c2)ccc1O [Curcumin],9.64%,72.6%,62.6 µM,–,–
–,CCCCCCCCCC(=O)N[C@@H](CCCNC(=N)N)C(=O)N[C@H](C(=O)N[C@@H](CCCCN)C(=O)N[C@@H](CCCNC(=N)N)C(=O)CCl)C(C)C [Decanoyl RVKR chloromethyl ketone] (Decanoyl-RVKR-CH2Cl),–,–,–,0.0134 µM,–
–,NC(=O)c1ncn([C@@H]2O[C@H](CO)[C@@H](O)[C@H]2O)n1 [Ribavirin],–,–,–,–,83%
